Test results as given in patent US12391687B2, “Five-and-six-membered heterocyclic compound and use thereof as protein receptor kinase inhibitor” (SHANGHAI ENNOVABIO PHARMACEUTICALS CO., LTD., priority 2018, dated 2025).

Key:
Recombinant human TRKB = Recombinant human TRKB (Homo sapiens (Human), UniProt Q16620); assay: In vitro activity test on TRKB kinase (HTRF kinEASE TK); type: biochemical; conditions: 4.77 μM ATP, 50 min, room temperature
Procedure: (§1) Recombinant human TRKA, TRKB, TRKC proteins were purchased from Carna Biosciences. HTRF kinEASE TK kit was purchased from Cisbio Bioassays. Synergy Neo 2 of Biotek was used to read the plate.
(§2) The tested compounds were subjected to 3-fold serial dilution to reach a final concentration of 1 μM to 0.05 nM (10 concentrations), duplicates for each concentration; and the DMSO concentration in the detection reaction was 1%.
(§3) 0.037 ng/μL TRKB protein kinase, 1 μM TK Substrate-biotin polypeptide substrate, 4.77 μM ATP, 1× enzymatic buffer, 5 mM MgCl2, 1 mM MnCl2 and 1 mM DTT. The assay plate was White Proxiplate 384-Plus plate (PerkinElmer), the reaction was incubated at room temperature for 50 min, and the assay volume was 10 μL.
(§4) 10 μL of detection reagent (containing 0.125 μM SA-XL665 and 5 μL 1×TK-Antibody) was added to the plate and incubated overnight at room temperature. Synergy Neo 2 was used to read the plate.
(§5) The 665/620 Ratio was converted according to the following formula into inhibition rate (%)=(1−Ratiotest/Ratiomax)×100%. Ratiomax was the value of positive controls without tested compound, and Ratiotest was the value of each concentration of different compounds. IC50 (nM) data was obtained by 4 parameter curve fitting (see Table 1).

[1] = molecular target: recombinant human TRKA (G595R) (Homo sapiens (Human), UniProt P04629, G595R); assay: In vitro activity test on mutant TRKA (G595R) (HTRF kinEASE TK); type: biochemical; conditions: 4.5 μM ATP, 30 min, room temperature; read-out: TRKA (G595R) IC 50
Chain of recombinant human TRKA (G595R) (P04629 33-796 G595R): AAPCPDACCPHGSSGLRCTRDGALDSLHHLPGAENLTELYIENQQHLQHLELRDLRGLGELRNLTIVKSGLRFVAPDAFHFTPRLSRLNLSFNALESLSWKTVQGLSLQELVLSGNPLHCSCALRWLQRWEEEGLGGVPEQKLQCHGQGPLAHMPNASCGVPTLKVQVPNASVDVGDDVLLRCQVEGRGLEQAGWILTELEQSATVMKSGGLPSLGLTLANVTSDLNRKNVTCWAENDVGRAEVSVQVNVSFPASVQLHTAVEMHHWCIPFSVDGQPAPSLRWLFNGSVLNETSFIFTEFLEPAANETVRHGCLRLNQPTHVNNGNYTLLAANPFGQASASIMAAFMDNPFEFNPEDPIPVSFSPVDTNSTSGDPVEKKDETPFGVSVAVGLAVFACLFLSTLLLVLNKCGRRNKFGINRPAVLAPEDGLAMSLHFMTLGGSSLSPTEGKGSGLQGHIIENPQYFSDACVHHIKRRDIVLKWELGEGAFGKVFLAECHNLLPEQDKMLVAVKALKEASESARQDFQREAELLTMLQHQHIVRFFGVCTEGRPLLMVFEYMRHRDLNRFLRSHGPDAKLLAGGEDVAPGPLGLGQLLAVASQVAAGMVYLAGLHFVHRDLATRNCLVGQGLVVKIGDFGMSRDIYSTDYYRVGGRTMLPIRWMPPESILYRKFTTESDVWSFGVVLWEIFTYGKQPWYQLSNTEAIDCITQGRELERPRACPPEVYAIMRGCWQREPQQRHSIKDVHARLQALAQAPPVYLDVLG
Procedure: The recombinant human TRKA (G595R), TRKA (G667C) and TRKC (G623R) proteins were purchased from SignalChem. HTRF kinEASE TK kit was purchased from Cisbio Bioassays. Synergy Neo 2 of Biotek was used to read the plate.
The tested compounds were subjected to 4-fold serial dilution to reach a final concentration of 1 μM to 0.004 nM (10 concentrates), duplicates for each concentration; and the final concentration of DMSO in the reaction was 1%.
0.12 ng/μL TRKA (G595R) kinase, 1 μM TK Substrate-biotin polypeptide substrate, 4.5 μM ATP, 1× enzymatic buffer, 5 mM MgCl2, and 1 mM DTT. The assay plate was White Proxiplate384-Plus plate (PerkinElmer), and the reaction was incubated at room temperature for 30 min, and the assay volume was 10 μL.
10 μL of detection reagent (containing 0.125 μM SA-XL665 and 5 μL 1×TK-Antibody) was added to the plate and incubated overnight at room temperature, and Synergy Neo 2 was used to read the plate.
The value of 665/620 Ratio minus the value of negative control wells without enzyme, then the obtained value was converted according to the following formula into inhibition rate (%)=(1−Ratiotest/Ratiomax)×100%. Ratiomax was the value of positive controls without tested compound, and Ratiotest was the value of each concentration of different compounds. IC50 (nM) data was obtained by 4 parameter curve fitting (see Table 3).

KM12-LUC cells = assay: KM12-LUC cell proliferation experiment (CellTiter-Glo); type: cell-based; conditions: human colon cancer cell line with TPM3-NTRK1 fusion, 72 hours
Procedure: Human colon cancer cell line KM12-LUC (LUC, stably expressing Luciferase) expressing TPM3-NTRK1 fusion gene was used to evaluate cellular activity of the compounds. The TRK fusion gene in KM12-LUC cells makes the sustained activation of TRK and the downstream signaling pathways associated with cell proliferation such as MAPK-ERK, PI3K-AKT, etc independent of the stimulation of extracellular growth factor. […] The method was as follows: On the first day, the cells were seeded into 384-well plates at 2000 cells/well; on the second day, different concentrations of test compounds were added; and on the 5th day, CellTiter-Glo (Promega) was added to detect cell viability, and the cell proliferation inhibition rate at 72 hours was calculated. Statistical analysis was carried out by PRISM5 and the IC50 of the test compounds was calculated.

Recombinant human TRKA = Recombinant human TRKA (Homo sapiens (Human), UniProt P04629); assay: In vitro activity test on TRKA kinase (HTRF kinEASE TK); type: biochemical; conditions: 14.68 μM ATP, 40 min, room temperature
Chain of Recombinant human TRKA (P04629 33-796): as the sequence (P04629 33-796 G595R) above, with R563G counted along it
Procedure: as §1, §2
0.2 ng/μL TRKA protein kinase, 1 μM TK Substrate-biotin polypeptide substrate, 14.68 μM ATP, 1×enzymatic buffer, 5 mM MgCl2, and 1 mM DTT. The assay plate was White Proxiplate384-Plus plate (PerkinElmer), and the reaction was incubated at room temperature for 40 min, and the assay volume was 10 μL.
as §4, §5

Recombinant human TRKC = Recombinant human TRKC (Homo sapiens (Human), UniProt Q16288); assay: In vitro activity test on TRKC kinase (HTRF kinEASE TK); type: biochemical; conditions: 25.64 μM ATP, 40 min, room temperature
Chain of Recombinant human TRKC (Q16288 32-839): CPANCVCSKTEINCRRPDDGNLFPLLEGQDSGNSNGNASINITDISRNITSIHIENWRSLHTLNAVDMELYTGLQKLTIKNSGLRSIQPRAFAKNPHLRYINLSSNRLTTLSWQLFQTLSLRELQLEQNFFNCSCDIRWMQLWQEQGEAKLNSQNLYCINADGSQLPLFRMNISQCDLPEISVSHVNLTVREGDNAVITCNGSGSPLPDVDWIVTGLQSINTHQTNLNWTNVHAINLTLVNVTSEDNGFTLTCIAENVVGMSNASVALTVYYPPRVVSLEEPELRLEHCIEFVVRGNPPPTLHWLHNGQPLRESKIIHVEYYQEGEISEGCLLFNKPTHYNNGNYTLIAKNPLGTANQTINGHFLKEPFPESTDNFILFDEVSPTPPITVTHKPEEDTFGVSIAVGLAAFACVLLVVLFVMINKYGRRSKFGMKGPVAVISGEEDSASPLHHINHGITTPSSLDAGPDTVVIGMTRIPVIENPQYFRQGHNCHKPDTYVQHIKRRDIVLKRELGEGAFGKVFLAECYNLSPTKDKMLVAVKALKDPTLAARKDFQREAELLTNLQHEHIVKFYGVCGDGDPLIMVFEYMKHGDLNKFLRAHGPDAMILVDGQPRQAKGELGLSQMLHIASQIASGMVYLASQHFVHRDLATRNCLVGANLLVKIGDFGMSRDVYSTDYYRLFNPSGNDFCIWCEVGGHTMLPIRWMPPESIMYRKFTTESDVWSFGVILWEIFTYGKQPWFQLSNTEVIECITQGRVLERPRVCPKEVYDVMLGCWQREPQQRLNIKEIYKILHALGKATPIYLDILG
Procedure: as §1, §2
as §3, with “ng/μL TRKC” for “ng/μL TRKB”, “substrate, 25.64” for “substrate, 4.77”, “MgCl2,” for “MgCl2, 1 mM MnCl2”, “The detection” for “The assay”, “for 40” for “for 50”
as §4, §5

Chain of Recombinant human TRKB (Q16620 32-822): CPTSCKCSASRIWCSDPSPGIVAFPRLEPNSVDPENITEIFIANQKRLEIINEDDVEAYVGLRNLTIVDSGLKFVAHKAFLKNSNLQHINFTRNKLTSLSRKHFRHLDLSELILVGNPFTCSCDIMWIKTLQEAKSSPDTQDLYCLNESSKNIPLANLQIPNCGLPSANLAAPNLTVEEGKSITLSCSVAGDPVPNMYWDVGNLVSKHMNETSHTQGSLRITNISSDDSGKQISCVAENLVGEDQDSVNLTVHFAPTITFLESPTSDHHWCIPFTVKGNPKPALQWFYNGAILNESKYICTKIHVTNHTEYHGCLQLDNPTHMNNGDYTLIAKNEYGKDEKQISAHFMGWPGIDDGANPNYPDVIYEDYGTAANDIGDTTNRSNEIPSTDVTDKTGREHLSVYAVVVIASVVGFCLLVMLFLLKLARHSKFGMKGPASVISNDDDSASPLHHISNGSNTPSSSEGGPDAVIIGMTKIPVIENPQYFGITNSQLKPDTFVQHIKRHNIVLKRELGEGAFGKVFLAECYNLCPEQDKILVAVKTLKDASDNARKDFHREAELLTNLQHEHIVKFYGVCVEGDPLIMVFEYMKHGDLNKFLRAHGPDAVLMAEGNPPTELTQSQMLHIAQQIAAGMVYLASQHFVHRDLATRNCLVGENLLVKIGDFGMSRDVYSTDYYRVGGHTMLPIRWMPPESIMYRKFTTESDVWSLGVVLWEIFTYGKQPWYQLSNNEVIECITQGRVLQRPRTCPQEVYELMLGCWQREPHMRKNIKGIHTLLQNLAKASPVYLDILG

Row | IC50 (Recombinant human TRKB) [nM] | IC50 [1] [nM] | IC50 (Recombinant human TRKA) [nM] | IC50 (Recombinant human TRKC) [nM] | Structure (SMILES) | IC50 (KM12-LUC cells) [nM]
1 | < 10 | < 10 | < 10 | < 10 | NC(=O)c1cnc2[nH]nc(N3C[C@@H](F)C[C@@H]3c3cc(F)ccc3F)c2c1 [Example 5, 3-((2R,4S)-2-(2,5-difluorophenyl)-4-fluoropyrrolidin-1-yl)-1H-pyrazolo[3,4-b]pyridine-5-carboxamide] | < 10
2 | < 1 | < 1 | < 1 | < 1 | Fc1ccc(F)c([C@H]2C[C@H](F)CN2c2n[nH]c3ncc(-c4cn[nH]c4)cc23)c1 [Example 20, 3-((2R,4S)-2-(2,5-difluorophenyl)-4-fluoropyrrolidin-1-yl)-5-(1H-pyrazol-4-yl)-1H-pyrazolo[3,4-b]pyridine] | < 10
3 | < 1 | < 1 | < 1 | < 1 | Fc1ccc(F)c([C@H]2C[C@H](F)CN2c2n[nH]c3ncc(-c4cnn(C5CCNCC5)c4)cc23)c1 [Example 22, 3-((2R,4S)-2-(2,5-difluorophenyl)-4-fluoropyrrolidin-1-yl)-5-(1-(piperidin-4-yl)-1H-pyrazol-4-yl)-1H-pyrazolo[3,4-b]pyridine] | < 10
4 | < 500 | < 1 | < 10 | < 100 | Fc1ccc(F)c([C@H]2C[C@H](F)CN2c2n[nH]c3ncc(-c4cnn([C@@H]5CCNC5)c4)cc23)c1 [Example 24, 3-((2R,4S)-2-(2,5-difluorophenyl)-4-fluoropyrrolidin-1-yl)-5-(1-((R)-pyrrolidin-3-yl)-1H-pyrazol-4-yl)-1H-pyrazolo[3,4-b]pyridine] | < 10
5 | < 1 | < 1 | < 1 | < 1 | Fc1ccc(F)c([C@H]2C[C@H](F)CN2c2n[nH]c3ncc(-c4cnn([C@H]5CCNC5)c4)cc23)c1 [Example 25, 3-((2R,4S)-2-(2,5-difluorophenyl)-4-fluoropyrrolidin-1-yl)-5-(1-((S)-pyrrolidin-3-yl)-1H-pyrazol-4-yl)-1H-pyrazolo[3,4-b]pyridine] | < 10
6 | < 1 | < 1 | < 1 | < 1 | Fc1ccc(F)c([C@H]2C[C@H](F)CN2c2n[nH]c3ncc(-c4cnn(C5CCOCC5)c4)cc23)c1 [Example 28, 3-((2R,4S)-2-(2,5-difluorophenyl)-4-fluoropyrrolidin-1-yl)-5-(1-(tetrahydro-2H-pyran-4-yl)-1H-pyrazol-4-yl)-1H-pyrazolo[3,4-b]pyridine] | –
7 | < 1 | < 10 | < 1 | < 1 | CN1CC(n2cc(-c3cnc4[nH]nc(N5C[C@@H](F)C[C@@H]5c5cc(F)ccc5F)c4c3)cn2)C1 [Example 29, 3-((2R,4S)-2-(2,5-difluorophenyl)-4-fluoropyrrolidin-1-yl)-5-(1-(1-methylazetidin-3-yl)-1H-pyrazol-4-yl)-1H-pyrazolo[3,4-b]pyridine] | < 10
8 | < 1 | < 1 | < 1 | < 1 | Fc1ccc(F)c([C@H]2C[C@H](F)CN2c2n[nH]c3ncc(-c4cnn(CC(F)F)c4)cc23)c1 [Example 30, 5-(1-(2,2-difluoroethyl)-1H-pyrazol-4-yl)-3-((2R,4S)-2-(2,5-difluorophenyl)-4-fluoropyrrolidin-1-yl)-1H-pyrazolo[3,4-b]pyridine] | < 10
9 | < 1 | < 10 | < 10 | < 10 | Fc1ccc(F)c([C@H]2C[C@H](F)CN2c2n[nH]c3ncc(-c4cnn(COCc5ccccc5)c4)cc23)c1 [Example 31, 5-(1-((benzyloxy)methyl)-1H-pyrazol-4-yl)-3-((2R,4S)-2-(2,5-difluorophenyl)-4-fluoropyrrolidin-1-yl)-1H-pyrazolo[3,4-b]pyridine] | –
10 | < 1 | < 1 | < 1 | < 1 | CC(C)(O)Cn1cc(-c2cnc3[nH]nc(N4C[C@@H](F)C[C@@H]4c4cc(F)ccc4F)c3c2)cn1 [Example 32, 1-(4-(3-((2R,4S)-2-(2,5-difluorophenyl)-4-fluoropyrrolidin-1-yl)-1H-pyrazolo[3,4-b]pyridin-5-yl)-1H-pyrazol-1-yl)-2-methylpropan-2-ol] | < 1
11 | < 1 | < 1 | < 1 | < 1 | CN(C)CCn1cc(-c2cnc3[nH]nc(N4C[C@@H](F)C[C@@H]4c4cc(F)ccc4F)c3c2)cn1 [Example 33, 2-(4-(3-((2R,4S)-2-(2,5-difluorophenyl)-4-fluoropyrrolidin-1-yl)-1H-pyrazolo[3,4-b]pyridin-5-yl)-1H-pyrazol-1-yl)-N,N-dimethylethan-1-amine] | < 1
12 | < 1 | < 10 | < 1 | < 1 | Fc1ccc(F)c([C@H]2C[C@H](F)CN2c2n[nH]c3ncc(-c4cnn(CC5CNC5)c4)cc23)c1 [Example 34, 5-(1-(azetidin-3-ylmethyl)-1H-pyrazol-4-yl)-3-((2R,4S)-2-(2,5-difluorophenyl)-4-fluoropyrrolidin-1-yl)-1H-pyrazolo[3,4-b]pyridine] | –
13 | < 1 | < 1 | < 1 | < 1 | Fc1ccc(F)c([C@H]2C[C@H](F)CN2c2n[nH]c3ncc(-c4cnn(CC(F)(F)F)c4)cc23)c1 [Example 35, 3-((2R,4S)-2-(2,5-difluorophenyl)-4-fluoropyrrolidin-1-yl)-5-(1-(2,2,2-trifluoroethyl)-1H-pyrazol-4-yl)-1H-pyrazolo[3,4-b]pyridine] | < 10
14 | < 1 | < 10 | < 1 | < 1 | Cc1cn(CC(F)F)nc1-c1cnc2[nH]nc(N3C[C@@H](F)C[C@@H]3c3cc(F)ccc3F)c2c1 [Example 40, 5-(1-(2,2-difluoroethyl)-4-methyl-1H-pyrazol-3-yl)-3-((2R,4S)-2-(2,5-difluorophenyl)-4-fluoropyrrolidin-1-yl)-1H-pyrazolo[3,4-b]pyridine] | –
15 | < 1 | < 1 | < 1 | < 1 | Fc1ccc(F)c([C@H]2C[C@H](F)CN2c2n[nH]c3ncc(-c4nnc(COC(F)(F)F)o4)cc23)c1 [Example 41, 2-(3-((2R,4S)-2-(2,5-difluorophenyl)-4-fluoropyrrolidin-1-yl)-1H-pyrazolo[3,4-b]pyridin-5-yl)-5-((trifluoromethoxy)methyl)-1,3,4-oxadiazole] | –
16 | < 1 | < 1 | < 1 | < 1 | O=C(c1n[nH]c2nccc(N[C@@H]3CCC[C@H]3O)c12)N1C[C@@H](F)C[C@@H]1c1cc(F)ccc1F [Example 43, ((2R,4S)-2-(2,5-difluorophenyl)-4-fluoropyrrolidin-1-yl)(4-(((1R,2R)-2-hydroxycyclopentyl)amino)-1H-pyrazolo[3,4-b]pyridin-3-yl)methanone] | –
